Measurements as given in patent US5036083A, “Heterocyclic agents” (ICI Pharma, priority 1988, dated 1991).

Experiments:
5-LO [1] = biological target: T1, 5-LO (Cavia porcellus, UniProt A0A286X958); test: Test (a): in vitro spectrophotometric cell-free enzyme assay, 5-LO isolated from guinea pig neutrophils; format: biochemical; details: 5-LO from guinea pig neutrophils
T1 construct: cell free system using 5-LO isolated from guinea pig neutrophils; endogenous in cells; host or cells: guinea pig neutrophils
T1 sequence (A0A286X958 1-674): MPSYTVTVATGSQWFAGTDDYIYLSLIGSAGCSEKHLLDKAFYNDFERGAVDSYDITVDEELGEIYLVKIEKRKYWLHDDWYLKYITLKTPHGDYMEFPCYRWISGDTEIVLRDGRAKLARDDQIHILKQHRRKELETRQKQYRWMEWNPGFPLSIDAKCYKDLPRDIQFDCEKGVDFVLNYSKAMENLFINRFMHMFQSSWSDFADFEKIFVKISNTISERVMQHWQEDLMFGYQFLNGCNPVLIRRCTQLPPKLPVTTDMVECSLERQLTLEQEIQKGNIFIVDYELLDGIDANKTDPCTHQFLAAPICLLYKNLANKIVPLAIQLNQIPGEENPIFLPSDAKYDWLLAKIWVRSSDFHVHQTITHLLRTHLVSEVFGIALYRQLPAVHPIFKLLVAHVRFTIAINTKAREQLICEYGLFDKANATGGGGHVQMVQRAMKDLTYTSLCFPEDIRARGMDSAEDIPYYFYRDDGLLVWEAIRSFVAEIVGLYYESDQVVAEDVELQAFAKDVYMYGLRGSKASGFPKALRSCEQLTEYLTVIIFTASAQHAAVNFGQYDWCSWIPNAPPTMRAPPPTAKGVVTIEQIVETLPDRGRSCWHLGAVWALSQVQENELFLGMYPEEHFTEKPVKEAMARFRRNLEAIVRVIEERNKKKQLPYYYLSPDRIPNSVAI
Description: (a) An in vitro spectrophotometric enzyme assay system, which assesses the inhibitory properties of a test compound in a cell free system using 5-LO isolated from guinea pig neutrophils and as described by D. Aharony and R. L. Stein (J. Biol. Chem., 1986, 261(25), 11512-11519). This test provides a measure of the intrinsic inhibitory properties against soluble 5-LO in an extracellular environment.

cyclooxygenase = biological target: T2, cyclooxygenase (Rattus norvegicus, UniProt Q63921); test: Test (b): heparinised rat blood challenged with A23187, PGE2 radioimmunoassay; format: cell-based
T2 construct: incubating a test compound with heparinised rat blood; from tissue; host or cells: heparinised rat blood
T2 sequence (Q63921 27-602): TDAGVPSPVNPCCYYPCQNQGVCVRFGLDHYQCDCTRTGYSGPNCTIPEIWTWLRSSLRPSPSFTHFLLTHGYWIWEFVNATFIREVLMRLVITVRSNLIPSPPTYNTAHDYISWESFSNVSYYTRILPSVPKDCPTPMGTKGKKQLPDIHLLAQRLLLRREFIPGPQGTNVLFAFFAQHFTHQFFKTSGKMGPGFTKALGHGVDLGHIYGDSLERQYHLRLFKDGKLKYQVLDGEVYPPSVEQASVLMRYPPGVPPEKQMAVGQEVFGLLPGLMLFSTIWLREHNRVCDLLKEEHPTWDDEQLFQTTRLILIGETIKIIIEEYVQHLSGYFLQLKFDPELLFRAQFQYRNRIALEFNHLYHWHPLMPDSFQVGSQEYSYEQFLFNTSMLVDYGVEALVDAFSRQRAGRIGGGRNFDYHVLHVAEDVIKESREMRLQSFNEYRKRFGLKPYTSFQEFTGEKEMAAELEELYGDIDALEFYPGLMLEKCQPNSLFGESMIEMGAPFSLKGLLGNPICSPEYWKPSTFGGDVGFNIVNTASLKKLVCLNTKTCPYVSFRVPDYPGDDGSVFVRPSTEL
Protocol: (§1) (b) An in vitro assay system involving incubating a test compound with heparinised rat blood, prior to challenge with the calcium ionophore A23187 and then indirectly measuring the inhibitory effects on 5-LO by assaying the amount of LTB4 using the specific radioimmunoassay described by Carey and Forder (F. Carey and R. A. Forder, Brit. J. Pharmacol. 1985, 84, 34P) which involves the use of a protein-LTB4 conjugate produced using the procedure of Young et alia Prostaglandins, 1983, 26(4), 605-613). The effects of a test compound on the enzyme cyclooxygenase (which is involved in the alternative metabolic pathway for arachidonic acid and gives rise to prostaglandins, thromboxanes and related metabolites) may be measured at the same time using the specific radioimmunoassay for prostaglandin E2 (PGE2) described by Carey and Forder (see above). This test provides an indication of the effects of a test compound against 5-LO and also cyclooxygenase in the presence of blood cells and proteins. It permits the selectivity of the inhibitory effect on 5-LO or cyclooxygenase to be assessed.

5-LO [2] = biological target: T3, 5-LO (Rattus norvegicus, UniProt P12527); test: Test (b): heparinised rat blood challenged with A23187, LTB4 radioimmunoassay; format: cell-based; parameters: incubating a test compound with heparinised rat blood; from tissue; host or cells: heparinised rat blood
T3 sequence (P12527 1-673): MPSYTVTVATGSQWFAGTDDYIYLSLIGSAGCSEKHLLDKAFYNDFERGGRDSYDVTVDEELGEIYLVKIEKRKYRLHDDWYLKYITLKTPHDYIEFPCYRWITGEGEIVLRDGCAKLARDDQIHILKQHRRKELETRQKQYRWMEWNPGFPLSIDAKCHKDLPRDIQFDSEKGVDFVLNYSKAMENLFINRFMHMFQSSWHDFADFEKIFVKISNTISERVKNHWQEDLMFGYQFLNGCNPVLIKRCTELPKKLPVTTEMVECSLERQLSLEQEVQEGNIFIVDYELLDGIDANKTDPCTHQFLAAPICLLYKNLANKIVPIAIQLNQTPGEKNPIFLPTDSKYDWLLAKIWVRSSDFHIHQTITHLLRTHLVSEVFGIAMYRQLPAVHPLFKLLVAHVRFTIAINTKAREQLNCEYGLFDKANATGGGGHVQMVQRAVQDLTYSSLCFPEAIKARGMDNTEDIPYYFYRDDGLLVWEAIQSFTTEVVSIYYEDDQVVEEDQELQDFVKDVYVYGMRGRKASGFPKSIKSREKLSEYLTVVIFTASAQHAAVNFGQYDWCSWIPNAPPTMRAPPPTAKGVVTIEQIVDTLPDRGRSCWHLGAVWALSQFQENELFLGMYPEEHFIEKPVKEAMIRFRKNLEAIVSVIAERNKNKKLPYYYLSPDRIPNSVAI
Protocol: as §1

5-LO [3] = biological target: T3, 5-LO; test: Test (c): ex vivo assay, oral dosing, blood challenged with A23187, LTB4 radioimmunoassay; format: in vivo; parameters: blood collection, heparinisation, challenge with A23187 and radioimmunoassay of LTB4 and PGE2; from tissue; host or cells: blood of dosed animals, heparinised ex vivo; details: A23187 challenge
Protocol: (c) An ex vivo assay system, which is a variation of test b) above, involving administration of a test compound (usually orally as the suspension produced when a solution of the test compound in dimethylsulphoxide is added to carboxymethylcellulose), blood collection, heparinisation, challenge with A23187 and radioimmunoassay of LTB4 and PGE2. This test provides an indication of the bioavailability of a test compound as an inhibitor of 5-LO or cyclooxygenase.

dogs = test: Induction of methaemoglobin formation in dogs dosed orally; format: in vivo, dog; details: oral, 5 mg/kg
Description: In copending European Application No. 88300281.8 (published 28th Sept., 1988 as EP 0284174 Al) it is disclosed that certain indazolone derivatives are effective as inhibitors of the enzyme 5-LO and thus of leukotriene biosyntheses.

SMILES	IC50 (5-LO [1]) [µM]	IC50 (cyclooxygenase) [µM]	IC50 (5-LO [2]) [µM]	ED50 (5-LO [3]) [mg/kg]	induction of methaemoglobin formation (dogs)
CCCCCNC(=O)c1cccc2[nH]n(C)c(=O)c12 [Example 5, 1,2-dihydro-2-methyl-4-(N-n-pentylcarbamoyl)-3H-indazol-3-one]	3.1	72	1.4	30 to 100	
O=c1c2ccccc2[nH]n1Cc1cccnc1 [1,2-dihydro-2-(3-pyridylmethyl) 3H indazol-3-one]					causes induction of methaemoglobin formation
